Columns and labels:
[1] = biological target: hKv1.5 (Homo sapiens, UniProt P22460); test: Kv1.5 Autopatch electrophysiology (whole cell); assay type: cell-based; conditions: hKv1.5 current, test concentration not given, read-out: hKv1.5 % Inh.
Protocol: Kv1.5 Autopatch Electraphysiogogy Method
The external bathing solution contained (in mM): 150 NaCl, 10 KCl, […], 3 MgCl2, 1 CaCl2, 10 HEPES, pH 7.4. Patch pipettes were filled with an electrode solution of composition (in mM): 160 KCl, 0.5 MgCl2, 10 HEPES, 1 EGTA, pH 7.4 with KOH.
Compounds were dissolved in DMSO (100%) and made up in the external bather at a concentration of 1 μM. All experiments were conducted at room temperature (22-24° C.).
A cell suspension (10 ml), with a density of 100,000 cells/ml, was aliquoted into a 15 ml centrifuge tube and transferred to an incubator (37° C., 5% CO2) for approximately one hour before use. Following 60 min incubation, a tube was taken and centrifuged at 1000 rpm for 4 mins at mom temperature. 9.5 ml supernatant was thence discarded, leaving a cell pellet a the bottom of the tube. The pellet was then resuspended using 100 μl of cold (4° C.), filtered (0.22 μm), 0.2% BSA/bather solution (0.02 g BSA/10 ml bather). The bottom of the tube was manually agitated gently until the solution became cloudy with cells. The 100 μl cell resuspension solution was then stored on the bench at 4° C. (using a Peltier-based temperature control device) until used.
A length of capillary glass (1B150F-4, WPI) was dipped into the cell suspension solution, such that ˜3 cm column of fluid was taken up by capillary action. A Ag/AgCl wire was dropped into the non-dipped end of the capillary also. The outside of the solution-filled end of the capillary was then dried and the capillary was loaded into the AutoPatch™.
Borosilicate glass patch pipettes (from 1.5 mm OD, thin-walled filamented, GC150-TF capillary glass, Harvard) were pulled using a DMZ pipette puller (Zeitz instruments), and were back-filled using the internal pipette solution, being careful that no bubbles remain at the tip or in the body of the pipette. Patch pipettes typically had resistances of 2.3-3.5 MΩ. Once filled, the pipette tip and a proportion of the shaft (˜15 mm) were dipped into Sigmacote (Sigma). The recording pipette was then loaded into the AutoPatch™. Automated patch-clamping was initiated by the operator, but thereafter AutoPatch.exe continued the experiment providing that pre-set conditions and criteria were satisfied.
Whole cell patch-clamp recordings were made using the AutoPatch™ rig, which incorporated an EPC9 amplifier (HEKA, Germany) under control of Pulse software (v8.54, HEKA, Germany), a motion controller with 2 translators (Newport, UK), valve controller (VFI) and a c-level suction device all at room temperature (22-24° C.). This equipment was completely under the control of AutoPatch.exe and operator intervention was only made when there was a requirement to refill the drug reservoirs or to prevent the loss of a cell due to a technical error. Cells with an Rseries greater than 18 MΩ were discounted from the experiment.
Qualification stages prior to perfusion and drug application ensured that the observed current met the criteria for the experiment. Only those cells with an 1K>500 pA were used for experiments. Cells were continuously perfused with external solution at a flow rate of 1.8-2 ml/minute. […]
Electrophysiology voltage-step protocols and analysis of data was performed as follows. […] Currents were analysed using Pulsefit software (v8.54, HEKA, Germany), with the total charge measured during the whole of the voltage step. […]

[2] = biological target: T1, human Kv1.3 (Homo sapiens, UniProt P22001); test: Kv1.3 Autopatch electrophysiology (whole cell); assay type: cell-based; conditions: compound at 1 μM; inhibition of charge movement relative to control; room temperature; read-out: hKv1.3 % Inh.
T1 construct: expressed in transfected cells
T1 sequence (P22001 whole entry): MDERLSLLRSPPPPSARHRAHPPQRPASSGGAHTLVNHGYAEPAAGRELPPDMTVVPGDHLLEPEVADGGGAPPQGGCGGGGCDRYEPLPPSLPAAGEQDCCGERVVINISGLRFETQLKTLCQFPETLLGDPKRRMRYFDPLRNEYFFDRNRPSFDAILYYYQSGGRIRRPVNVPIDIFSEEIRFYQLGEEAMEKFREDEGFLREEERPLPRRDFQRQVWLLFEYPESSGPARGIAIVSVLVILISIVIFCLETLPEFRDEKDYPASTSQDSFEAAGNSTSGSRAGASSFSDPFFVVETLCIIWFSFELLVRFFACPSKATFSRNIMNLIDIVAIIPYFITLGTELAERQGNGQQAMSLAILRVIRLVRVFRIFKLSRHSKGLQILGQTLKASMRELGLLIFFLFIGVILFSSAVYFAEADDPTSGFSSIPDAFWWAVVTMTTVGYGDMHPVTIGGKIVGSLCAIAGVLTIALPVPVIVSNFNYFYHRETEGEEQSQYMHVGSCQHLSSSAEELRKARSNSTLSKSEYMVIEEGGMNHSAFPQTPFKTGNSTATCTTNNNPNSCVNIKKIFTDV
Protocol: Kv1.3 Autopatch Electrophysiology Method
Cells stably transfected with cDNA for human Kv1.3 (in pcDNA3.1) were grown in Ex-cell 302 serum-free medium for CHO cells, supplemented with 10 μl/ml [100×] glutamine, 500 μg/ml G418 ([…]), and 1% HT supplement (50×, hypoxanthine and thymidine). Compounds were tested on these cells using the AutoPatch technology in whole cell mode.
The external bathing solution contained (in mM): 150 NaCl, 10 KCl, MgCl2, 3 CaCl2, 10 HEPES, pH 7.4 with NaOH. Patch pipettes were filled with an electrode solution of composition (in mM): 100 K-Gluconate, 20 KCl, 1 MgCl2, CaCl2, 10 HEPES, 11 EGTA, 5 ATP-Na2, 2 Glutathione pH 7.2 with KOH.
Compounds were dissolved in DMSO (100%) and made up in the external bather at a concentration of 1 μM immediately prior to use. All experiments were conducted at room temperature.
A cell suspension (10 ml), with a density of 6×10^6 cells, was aliquoted into a 15 ml centrifuge tube and stored at 4° C. before use. Prior to use a tube was taken and centrifuged at 1000 rpm for 4 mins at room temperature. The supernatant was then discarded, leaving a cell pellet at the bottom of the tube. The pellet was then resuspended using 1 ml of cold (4° C.), filtered (0.22 μm), 0.05% BSA/bather solution (0.05 g BSA/100 ml bather). The bottom of the tube was manually agitated followed by gentle tituration. The cell suspension was then placed in the AutoPatch™ temperature controlled cell-hotel at 14° C. and regularly titurated.
A length of Teflon capillary tubing was dipped into the cell suspension solution, and a column of fluid was taken up by negative pressure. The column of fluid was in electrically connectivity with a Ag/AeCl reference electrode. Borosilicate glass patch pipettes (from 1.5 mm OD, thin-walled filamented, GC150-TF capillary glass, Harvard) were pulled using a DMZ pipette puller (Zeitz Instruments), and were back-filled using the internal pipette solution, being careful that no bubbles remained at the tip or in the body of the pipette. Patch pipettes typically had resistances of 2.5-3.5 MΩ. Once filled, the pipette tip and a proportion of the shaft (˜15 mm) were dipped into Sigmacote (Sigma). The recording pipettes were placed in a multiwell array and mounted on the AutoPatch™ machine. Automated patch-clamping and drug-application was initiated by the operator, but thereafter AutoPatch.exe continued the experiment providing that pre-set conditions and criteria were satisfied.
Whole cell patch-clamp recordings were made using the AutoPatch™ rig, which incorporated an EPC9 or EPC10 amplifier (HEKA, Germany) under control of Pulse software (v8.54 or v8.76, HEKA, Germany), a cell applicator, automated drug application system (DAS), valve controller (VFI) and a suction device all at room temperature. This equipment was completely under the control of AutoPatch.exe and operator intervention was only made when there was a requirement to refill the bather reservoirs or to prevent the loss of a cell due to a technical error. […]
Electrophysiology voltage-step protocols and analysis of data was performed as follows. […] Online analysis of the hKv1.3 current during the application of compounds was performed by the Pulse (v8.54 or v8.76, HEKA, Germany), Excel (Microsoft, USA) and AutoPatch™ software, with the total charge measured during the whole of voltage step. Inhibition of charge movement in the presence of drug was calculated relative to control.

hKv1.5, sequence (P22460 whole entry): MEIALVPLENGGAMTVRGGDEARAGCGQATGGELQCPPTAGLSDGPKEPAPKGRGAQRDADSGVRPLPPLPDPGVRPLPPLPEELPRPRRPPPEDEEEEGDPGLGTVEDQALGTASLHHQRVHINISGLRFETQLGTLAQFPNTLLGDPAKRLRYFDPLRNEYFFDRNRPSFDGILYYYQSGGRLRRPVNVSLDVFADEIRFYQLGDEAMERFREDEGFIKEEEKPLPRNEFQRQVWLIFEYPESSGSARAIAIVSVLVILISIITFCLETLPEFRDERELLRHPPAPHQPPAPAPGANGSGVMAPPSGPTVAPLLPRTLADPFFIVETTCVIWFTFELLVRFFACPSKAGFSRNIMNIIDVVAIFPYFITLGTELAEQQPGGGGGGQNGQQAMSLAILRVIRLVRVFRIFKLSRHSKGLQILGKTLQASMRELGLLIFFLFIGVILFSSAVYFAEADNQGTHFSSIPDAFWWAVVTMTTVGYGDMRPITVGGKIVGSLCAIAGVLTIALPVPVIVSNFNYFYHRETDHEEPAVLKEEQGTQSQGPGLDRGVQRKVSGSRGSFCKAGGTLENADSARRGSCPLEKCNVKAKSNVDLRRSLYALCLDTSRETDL

Compound	inhibition at 1 µM [1]	inhibition at 1 µM [2]
Cn1ccc(S(=O)(=O)N(Cc2ccc(Cl)cc2)c2cccc(C(=O)NCCO)c2)n1 [Example 1, 3-[(4-Chloro-benzyl)-(1-methyl-1H-pyrazole-3-sulfonyl)-amino]-N-(2-hydroxy-ethyl)-benzamide]	48%	86%
CC(C)NC(=O)c1cccc(N(Cc2ccccc2)S(=O)(=O)c2cccnc2)c1 [Example 3, 3-[Benzyl-(pyridine-3-sulfonyl)-amino]-N-isopropyl-benzamide]	52%	92%
CC(C)NC(=O)c1cccc(N(Cc2ccc(Cl)cc2)S(=O)(=O)c2ccnn2C)c1 [Example 7, 3-[(4-Chloro-benzyl)-(2-methyl-2H-pyrazole-3-sulfonyl)-amino]-N-isopropyl-benzamide]	54%	57%

Results, then the compound that gave them:

inhibition at 1 µM [1]	inhibition at 1 µM [2]	Compound
99%	88%	O=C(Nc1ccc2cn[nH]c2c1)c1cccc(N(Cc2ccccc2)S(=O)(=O)c2ccccc2)c1 [Example 4, 3-(Benzenesulfonyl-benzyl-amino)-N-(1H-indazol-6-yl)-benzamide]
18%	45%	CC(=O)Nc1ccc(S(=O)(=O)N(Cc2ccccc2)c2cccc(C(=O)NC(C)C)c2)cc1 [Example 5, 3-[(4-Acetylamino-benzenesulfonyl)-benzyl-amino]-N-isopropyl-benzamide]

— US9447033B2, “Potassium channel blockers” (Japan Tobacco Inc., priority 2008, dated 2016)
